The first assay deals with T1, K-Ras G12C (Homo sapiens, UniProt P01116, G12C).
T1 construct: This protein contained 188 amino acids in total, including an N-terminal 6-Histidine tag; made in house; host or cells: E. coli BL21
The experiment in a line: CAF assay (% CAF; method in Example 7, not in this part). The format is binding. The following applies: 10 uM compound, 1 h incubation.
`C=CC(=O)N1C[C@H](C)N(c2nc(=O)n3c4c(c(-c5ccc(F)cc5F)c(C(F)(F)F)cc24)SC[C@@H]3COCCOC)C[C@H]1C` (atropisomer, axis not shown) [Example 511, (3S,10R)-7-((2S,5R)-4-acryloyl-2,5-dimethylpiperazin-1-yl)-10-(2,4-difluorophenyl)-3-((2-methoxyethoxy)methyl)-9-(trifluoromethyl)-2,3-dihydro-5H-[1,4]thiazino[2,3,4-ij]quinazolin-5-one]: the “% CAF @ 10 uM, 1h” value was 80.6%.

Regarding `C=CC(=O)N1[C@H](C)CN(c2nc(=O)n3c4c(c(-c5ccc(F)cc5F)c(C(F)(F)F)cc24)SC[C@H](OC)C3)C[C@@H]1C` [Example 524, (3R)-8-((3S,5R)-4-acryloyl-3,5-dimethylpiperazin-1-yl)-11-(2,4-difluorophenyl)-3-methoxy-10-(trifluoromethyl)-3,4-dihydro-2H,6H-[1,4]thiazepino[2,3,4-ij]quinazolin-6-one], the “% CAF @ 10 uM, 1h” value came out at 95%.

As for `C=CC(=O)N1C[C@H](C)N(c2nc(=O)n3c4c(c(-c5ccc(F)cc5F)c(Cl)cc24)SC[C@@H]3CC2CCN(CC(F)F)CC2)C[C@H]1C` [Example 477, (3S)-7-((2S,5R)-4-acryloyl-2,5-dimethylpiperazin-1-yl)-9-chloro-3-((1-(2,2-difluoroethyl)piperidin-4-yl)methyl)-10-(2,4-difluorophenyl)-2H-[1,4]thiazino[2,3,4-ij]quinazolin-5(3H)-one], the “% CAF @ 10 uM, 1h” value turned out to be 63.5%. On the same count and under the same terms, to `C=CC(=O)N1C[C@H](C)N(c2nc(=O)n3c4c(c(-c5cc(F)c(F)cc5F)c(C(F)(F)F)cc24)SC[C@@H]3COC)C[C@H]1C` [Example 491, (3S)-7-((2S,5R)-4-acryloyl-2,5-dimethylpiperazin-1-yl)-3-(methoxymethyl)-9-(trifluoromethyl)-10-(2,4,5-trifluorophenyl)-2H-[1,4]thiazino[2,3,4-ij]quinazolin-5(3H)-one] belongs 60%; to `C=CC(=O)N1CCN(c2nc(=O)n3c4c(c(-c5ccc(F)cc5F)c(Cl)cc24)SC[C@@H]3CC2CCN(C3COC3)CC2)[C@@H](C)C1` [Example 415, (3S)-7-((S)-4-acryloyl-2-methylpiperazin-1-yl)-9-chloro-10-(2,4-difluorophenyl)-3-((1-(oxetan-3-yl)piperidin-4-yl)methyl)-2H-[1,4]thiazino[2,3,4-ij]quinazolin-5(3H)-one], 85.4%. The same measure, in the same setting: in the case of `C=CC(=O)N1C2CC(=O)CC1CN(c1nc(=O)n3c4c(c(-c5ccc(F)cc5F)c(C(F)(F)F)cc14)SCCC3)C2` [Example 486, 8-(9-acryloyl-7-oxo-3,9-diazabicyclo[3.3.1]nonan-3-yl)-11-(2,4-difluorophenyl)-10-(trifluoromethyl)-3,4-dihydro-2H,6H-[1,4]thiazepino[2,3,4-ij]quinazolin-6-one] it was 95%; in that of `C=CC(=O)N1CCN(c2nc(=O)n3c4c(c(-c5ccc(F)cc5F)c(C(F)(F)F)cc24)S(=O)(=O)C[C@@H]3CC2CCN(CC)CC2)[C@@H](C)C1` [Example 434, (3S)-7-((S)-4-acryloyl-2-methylpiperazin-1-yl)-10-(2,4-difluorophenyl)-3-((1-ethylpiperidin-4-yl)methyl)-9-(trifluoromethyl)-2H-[1,4]thiazino[2,3,4-ij]quinazolin-5(3H)-one 1,1-dioxide], 51.5%.

On to `C=CC(=O)N1CCN(c2nc(=O)n3c4c(c(-c5cc(Cl)c(F)cc5F)c(C(F)(F)F)cc24)SC[C@@H]3COCOC)[C@@H](C)C1` (atropisomer, axis not shown) [Example 552, (3S,10R)-7-((S)-4-acryloyl-2-methylpiperazin-1-yl)-10-(5-chloro-2,4-difluorophenyl)-3-((methoxymethoxy)methyl)-9-(trifluoromethyl)-2,3-dihydro-5H-[1,4]thiazino[2,3,4-ij]quinazolin-5-one], for which the “% CAF @ 10 uM, 1h” value is 62.2%.

Staying with this assay, now noted: 10 uM, 1 h; Table 3.
`C=CC(=O)N1CCN(c2nc(=O)n3c4c(c(-c5cccc6cnn(C)c56)c(Cl)cc24)SCC3)[C@@H](C)C1` (atropisomer, axis not shown) [Example 108, (R)-7-((S)-4-acryloyl-2-methylpiperazin-1-yl)-9-chloro-10-(1-methyl-1H-indazol-7-yl)-2,3-dihydro-5H-[1,4]thiazino[2,3,4-ij]quinazolin-5-one]: the “% CAF @ 10 uM, 1h” value stood at 91.7%. Same read-out and setting: in the case of `C=CC(=O)N1CCN(c2nc(=O)n3c4c(c(-c5ccc(F)cc5F)c(Br)cc24)SCC3)[C@@H](C)C1` [Example 142, 7-((S)-4-acryloyl-2-methylpiperazin-1-yl)-9-bromo-10-(2,4-difluorophenyl)-2,3-dihydro-5H-[1,4]thiazino[2,3,4-ij]quinazolin-5-one] it was 94.7%; in that of `C=CC(=O)N1CCN(c2nc(=O)n3c4c(c(-c5ccc(F)cc5F)c(Cl)cc24)SCC3)CC1` [Example 164, 7-(4-acryloylpiperazin-1-yl)-9-chloro-10-(2,4-difluorophenyl)-2,3-dihydro-5H-[1,4]thiazino[2,3,4-ij]quinazolin-5-one], 95.1%. Same read-out and setting: to `C=CC(=O)N1C2CC(=O)CC1CN(c1nc(=O)n3c4c(c(-c5ccc(F)cc5F)c(Cl)cc14)SCC3)C2` [Example 138, 7-(9-acryloyl-7-oxo-3,9-diazabicyclo[3.3.1]nonan-3-yl)-9-chloro-10-(2,4-difluorophenyl)-2,3-dihydro-5H-[1,4]thiazino[2,3,4-ij]quinazolin-5-one] belongs 95.8%; to `C=CC(=O)N1CCN(c2nc(=O)n3c4c(c(-c5ccc(F)cc5F)c(Cl)cc24)SCC3)[C@@H](C)C1` [Example 193, 7-((S)-4-acryloyl-2-methylpiperazin-1-yl)-9-chloro-10-(2,4-difluorophenyl)-2,3-dihydro-5H-[1,4]thiazino[2,3,4-ij]quinazolin-5-one], 97%; to `C=CC(=O)N1CCN(c2nc(=O)n3c4c(c(-c5ccc(F)c(Cl)c5)c(Cl)cc24)SCC3)[C@@H](C)C1` [Example 98, (S)-7-(4-acryloyl-2-methylpiperazin-1-yl)-9-chloro-10-(3-chloro-4-fluorophenyl)-2,3-dihydro-5H-[1,4]thiazino[2,3,4-ij]quinazolin-5-one], 86.4%. The same measure, in the same setting: in the case of `C=CC(=O)N1CCN(c2nc(=O)n3c4c(c(-c5ccc(F)cc5F)c(Cl)cc24)SCC3)C2CSCC21` (centres unmarked) [Example 144, 7-(4-acryloylhexahydrothieno[3,4-b]pyrazin-1(2H)-yl)-9-chloro-10-(2,4-difluorophenyl)-2,3-dihydro-5H-[1,4]thiazino[2,3,4-ij]quinazolin-5-one] it was 64.9%; in that of `C=CC(=O)N1CCN(c2nc(=O)n3c4c(c(-c5ccccc5F)c(Cl)cc24)SCC3)[C@@H](C)C1` (atropisomer, axis not shown) [Example 123, (R)-7-((S)-4-acryloyl-2-methylpiperazin-1-yl)-9-chloro-10-(2-fluorophenyl)-2,3-dihydro-5H-[1,4]thiazino[2,3,4-ij]quinazolin-5-one], 91.3%.

Staying with this assay, now noted: 10 μM, 1 h; Table 4.
Consider `C=CC(=O)N1CCN(c2nc(=O)n3c4c(c(-c5ccc(F)cc5F)c(C(F)(F)F)cc24)SC[C@@H]3CN2CCN(CC)CC2)[C@@H](C)C1` [Example 350, (3S)-7-((S)-4-acryloyl-2-methylpiperazin-1-yl)-10-(2,4-difluorophenyl)-3-((4-ethylpiperazin-1-yl)methyl)-9-(trifluoromethyl)-2H-[1,4]thiazino[2,3,4-ij]quinazolin-5(3H)-one], for which the “% CAF @ 10 μM, 1 h” value is 95%.
